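Five concentrations, 48 hours, 96-well plates. GI50 marks 50% less growth. At the TGI there is no net growth.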 Where only a bound is given, the exact number is not on record here.

Test systems include HCC-2998 colon; K-562 leukemia; OVCAR-3 ovarian; SNB-75 CNS; HS 578T breast; LOX IMVI melanoma; CCRF-CEM leukemia; SK-MEL-2 melanoma; ACHN renal; RPMI-8226 leukemia.
Common to all, as to experiment: NCI tumour cell line growth inhibition, 48 h

On to `CCCCCC(O)C1C(=O)OC(C)C(O)/C=C/C=C/C=C/C=C\C=C(\C)C(O)CC(O)CC(O)CC(O)CC(O)CC(O)CC1O` (stereo unspecified), for which the GI50 with HCC-2998 colon, in the experiment on K-562 leukemia, in the experiment on OVCAR-3 ovarian, with SNB-75 CNS, in the experiment on HS 578T breast and in the experiment with LOX IMVI melanoma was above 100 µM in each case. Moreover, the GI50 with CCRF-CEM leukemia, with SK-MEL-2 melanoma, with ACHN renal and in the experiment with RPMI-8226 leukemia was above 100 µM throughout. Further, the TGI in the experiment with HCC-2998 colon, in the experiment on K-562 leukemia, in the experiment with OVCAR-3 ovarian, with SNB-75 CNS, with HS 578T breast and with LOX IMVI melanoma was above 100 µM each time. Moreover, the TGI in the experiment on CCRF-CEM leukemia, in the experiment with SK-MEL-2 melanoma, in the experiment with ACHN renal and in the experiment on RPMI-8226 leukemia was above 100 µM throughout.

With `CC(=O)OC1CC(n2cc(F)c(=O)[nH]c2=O)OC1CO` (stereo unspecified), the TGI with HCC-2998 colon was 8.33 µM; with K-562 leukemia, above 100 µM; in the experiment on OVCAR-3 ovarian it was above 100 µM; in the experiment on SNB-75 CNS it was above 100 µM; in the experiment on HS 578T breast, above 100 µM; in the experiment with LOX IMVI melanoma, above 63.8 µM. Also, the TGI in the experiment on CCRF-CEM leukemia was above 100 µM; in the experiment with SK-MEL-2 melanoma, above 100 µM; in the experiment with ACHN renal, above 77.8 µM; with RPMI-8226 leukemia it was above 100 µM.

Turning to `O=P(O)(O)c1ccccc1` (tested in a mixture with another compound), the TGI in the experiment on HCC-2998 colon, in the experiment on K-562 leukemia, with OVCAR-3 ovarian, in the experiment with SNB-75 CNS, in the experiment with HS 578T breast and with LOX IMVI melanoma was above 100 µM each time. The TGI with CCRF-CEM leukemia, in the experiment with SK-MEL-2 melanoma, in the experiment with ACHN renal and with RPMI-8226 leukemia was above 100 µM each time.

On to `COc1cc(NCCCCN=C(N)NC(N)=NC(C)C)c2ncccc2c1`, for which the GI50 with HCC-2998 colon was 2.52 µM; with K-562 leukemia, 3.65 µM; in the experiment with OVCAR-3 ovarian, 0.311 µM; in the experiment with SNB-75 CNS, 4.21 µM; with HS 578T breast, 5.51 µM; with LOX IMVI melanoma, 3.68 µM. Further, the GI50 in the experiment with CCRF-CEM leukemia is 4.57 µM; in the experiment with SK-MEL-2 melanoma, 3.8 µM; in the experiment on ACHN renal, above 73.7 µM; in the experiment on RPMI-8226 leukemia, 1.51 µM. Also, the TGI in the experiment with HCC-2998 colon worked out at 14.2 µM; with K-562 leukemia, 25.8 µM; in the experiment with OVCAR-3 ovarian, 0.897 µM; in the experiment on SNB-75 CNS it was 17.3 µM; with HS 578T breast it was 27.1 µM; in the experiment with LOX IMVI melanoma, 15.5 µM. In addition, the TGI is 27.3 µM with CCRF-CEM leukemia, 14.9 µM with SK-MEL-2 melanoma, above 100 µM in the experiment on ACHN renal and 11 µM with RPMI-8226 leukemia.

For `CC(C)C1OC(=O)C=C1Sc1ccccc1` (stereo unspecified), the TGI with HCC-2998 colon, in the experiment on K-562 leukemia, in the experiment on OVCAR-3 ovarian, in the experiment on SNB-75 CNS, in the experiment with HS 578T breast and with LOX IMVI melanoma was above 100 µM in each case. The TGI in the experiment on CCRF-CEM leukemia, in the experiment on SK-MEL-2 melanoma, with ACHN renal and in the experiment with RPMI-8226 leukemia was above 100 µM each time.

Consider `CCn1c2c(n(CC)c1=S)-c1c(n(CC)c(=S)n1CC)SSSS2`, for which the TGI in the experiment on HCC-2998 colon turned out to be 49.4 µM; in the experiment on K-562 leukemia, 8.97 µM; in the experiment with OVCAR-3 ovarian, 17.9 µM; in the experiment on SNB-75 CNS, 26.6 µM; in the experiment on HS 578T breast, 91.1 µM; in the experiment on LOX IMVI melanoma, 23.2 µM. The TGI with CCRF-CEM leukemia is 9.42 µM; in the experiment on SK-MEL-2 melanoma, 31.2 µM; in the experiment with ACHN renal it was 16 µM; in the experiment with RPMI-8226 leukemia, 9.34 µM.

For `NC(=NCCCOc1ccc(Cl)cc1)Nc1ccc(Cl)cc1`, the GI50 is 1.5 µM in the experiment with HCC-2998 colon; 1.85 µM in the experiment on K-562 leukemia; 2.84 µM with OVCAR-3 ovarian; 0.725 µM in the experiment with SNB-75 CNS; 3.39 µM in the experiment with HS 578T breast; 1.6 µM in the experiment on LOX IMVI melanoma. For the same molecule, the GI50 in the experiment on CCRF-CEM leukemia is 2.11 µM; in the experiment with SK-MEL-2 melanoma it was 2.32 µM; with ACHN renal, 2.01 µM; in the experiment with RPMI-8226 leukemia, 2.1 µM. Moreover, the TGI was found to be 3.12 µM in the experiment with HCC-2998 colon; 4.32 µM with K-562 leukemia; 8.09 µM in the experiment on OVCAR-3 ovarian; 11.8 µM with SNB-75 CNS; 14 µM in the experiment with HS 578T breast; 2.98 µM in the experiment with LOX IMVI melanoma. For the same molecule, the TGI in the experiment with CCRF-CEM leukemia worked out at 6.74 µM; with SK-MEL-2 melanoma it was 4.72 µM; with ACHN renal, 5.31 µM; with RPMI-8226 leukemia it was 4.66 µM.

Consider `CN(C)c1ccc(/C=C(/NC(=O)c2ccccc2)c2nc3ccc(Cl)cc3[nH]2)cc1`, for which the TGI in the experiment on HCC-2998 colon was above 75.5 µM; with K-562 leukemia, above 73.8 µM; with OVCAR-3 ovarian, above 9.31 µM; with SNB-75 CNS it was above 91.3 µM; in the experiment with HS 578T breast, above 100 µM; with LOX IMVI melanoma, above 70.6 µM. For the same molecule, the TGI was above 84 µM in the experiment on CCRF-CEM leukemia, 99.4 µM in the experiment with SK-MEL-2 melanoma, above 100 µM in the experiment with ACHN renal and above 82.2 µM in the experiment on RPMI-8226 leukemia. Moreover, the GI50 with HS 578T breast is 59.6 µM.

With `CC(=O)c1c(C(F)(F)F)n([O-])c2ccc(Cl)cc2[n+]1=O`, the GI50 with HCC-2998 colon is 1.03 µM; in the experiment with K-562 leukemia it was 0.509 µM; with OVCAR-3 ovarian, 2.64 µM; with SNB-75 CNS, 1.69 µM; in the experiment on HS 578T breast, 6.65 µM; in the experiment with LOX IMVI melanoma, 0.652 µM. Besides, the GI50 in the experiment on CCRF-CEM leukemia was 0.0108 µM; with SK-MEL-2 melanoma, 3.18 µM; in the experiment with ACHN renal, 0.69 µM; in the experiment with RPMI-8226 leukemia it was below 0.0422 µM. The TGI in the experiment with HCC-2998 colon was 2.41 µM; in the experiment with K-562 leukemia it was 3.52 µM; in the experiment with OVCAR-3 ovarian it was 8.13 µM; in the experiment on SNB-75 CNS, 8.38 µM; in the experiment on HS 578T breast it was above 26.5 µM; in the experiment with LOX IMVI melanoma, 3.92 µM. Further, the TGI in the experiment on CCRF-CEM leukemia was 2.22 µM; in the experiment with SK-MEL-2 melanoma it was 12.5 µM; in the experiment on ACHN renal, 4.96 µM; in the experiment on RPMI-8226 leukemia, 0.171 µM.

The values above are taken from PubChem BioAssay (NCI).
